# From ChEMBL document CHEMBL1201862, “PubChem BioAssay data set” (2004)
#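 1) Cells in 96-well plates. 2) Compound, 48 h, 5 concentrations. 3) Linear interpolation between surrounding doses. 4) Unreached endpoint = highest concentration. GI50 marks 50% less growth.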 Activity calls are given as the source filed them. Cut-off read from the data, not from the text of the source: active = GI50 up to about 1.1 µM and inactive = higher.
# Tests used:
# Experiment in all cases: DTP human tumour cell line panel, 48 h
# OVCAR-3 = test system: OVCAR-3
# OVCAR-8 = test system: OVCAR-8
# SNB-19 = test system: SNB-19
# XF498 = test system: XF498
# HCT-116 = test system: HCT-116
# NCI-H522 = test system: NCI-H522
# COLO 205 = test system: COLO 205
# SF-295 = test system: SF-295
# UACC-62 = test system: UACC-62
# OVCAR-4 = test system: OVCAR-4
# RPMI-8226 = test system: RPMI-8226
# RXF 393 = test system: RXF 393
# 786-0 = test system: 786-0
# MOLT-4 = test system: MOLT-4
# SF-268 = test system: SF-268
# Malme-3M = test system: Malme-3M
# K562 = test system: K562
# HL-60 = test system: HL-60
# KM-20L2 = test system: KM-20L2
# SK-MEL-2 = test system: SK-MEL-2
# EKVX = test system: EKVX
# LXFL 529 = test system: LXFL 529
# HOP-62 = test system: HOP-62
# U-251 = test system: U-251
# SK-MEL-5 = test system: SK-MEL-5
# TK-10 = test system: TK-10
# ACHN = test system: ACHN
# SR = test system: SR
# SN12C = test system: SN12C
# OVCAR-5 = test system: OVCAR-5
# NCI-H460 = test system: NCI-H460
# A549 = test system: A549
# M14 = test system: M14
# DMS-273 = test system: DMS-273
# LOX IMVI = test system: LOX IMVI
# CCRF-CEM = test system: CCRF-CEM
# M19-MEL = test system: M19-MEL
# NCI-H23 = test system: NCI-H23
# IGROV-1 = test system: IGROV-1
# KM12 = test system: KM12
# UO-31 = test system: UO-31
# SK-MEL-28 = test system: SK-MEL-28
# SW-620 = test system: SW-620
# HT-29 = test system: HT-29
# HCT-15 = test system: HCT-15
# SNB-78 = test system: SNB-78
# NCI-H226 = test system: NCI-H226
# HCC 2998 = test system: HCC 2998
# DLD-1 = test system: DLD-1
# SK-OV-3 = test system: SK-OV-3
# SF-539 = test system: SF-539
# UACC-257 = test system: UACC-257
# SNB-75 = test system: SNB-75
# NCI/ADR-RES = test system: NCI/ADR-RES
# MDA-MB-231 = test system: MDA-MB-231
# A498 = test system: A498
# MCF7 = test system: MCF7
# Hs-578T = test system: Hs-578T
# MDA-MB-435 = test system: MDA-MB-435
# T47D = test system: T47D
# BT-549 = test system: BT-549
# MDA-N = test system: MDA-N
# PC-3 = test system: PC-3
# CAKI-1 = test system: CAKI-1
# HOP-92 = test system: HOP-92
# DU-145 = test system: DU-145
smiles,measurement,setting,value
CC(C(=O)N1C(=O)N(C(=O)C(C)C(O)c2ccccc2)C2CCCCC21)C(O)c1ccccc1 (stereo unspecified),GI50,OVCAR-3,78.2 µM (inactive)
same,GI50,OVCAR-8,88.3 µM (inactive)
same,GI50,SNB-19,92.7 µM (inactive)
same,GI50,XF498,79.6 µM (inactive)
same,GI50,HCT-116,> 100 µM (inactive)
same,GI50,NCI-H522,46.8 µM (inactive)
same,GI50,COLO 205,> 100 µM (inactive)
same,GI50,SF-295,34.9 µM (inactive)
same,GI50,UACC-62,> 100 µM (inactive)
same,GI50,OVCAR-4,57.4 µM (inactive)
same,GI50,RPMI-8226,34 µM (inactive)
same,GI50,RXF 393,66.1 µM (inactive)
same,GI50,786-0,> 100 µM (inactive)
same,GI50,MOLT-4,26.2 µM (inactive)
same,GI50,SF-268,> 100 µM (inactive)
same,GI50,Malme-3M,57.4 µM (inactive)
same,GI50,K562,> 10 µM (inactive)
same,GI50,HL-60,27.7 µM (inactive)
same,GI50,KM-20L2,> 100 µM (inactive)
same,GI50,SK-MEL-2,30.3 µM (inactive)
same,GI50,EKVX,81.3 µM (inactive)
same,GI50,LXFL 529,44.1 µM (inactive)
same,GI50,HOP-62,> 100 µM (inactive)
same,GI50,U-251,> 100 µM (inactive)
same,GI50,SK-MEL-5,30.1 µM (inactive)
same,GI50,TK-10,> 100 µM (inactive)
same,GI50,ACHN,58.9 µM (inactive)
same,GI50,SR,28.6 µM (inactive)
same,GI50,SN12C,> 100 µM (inactive)
same,GI50,OVCAR-5,> 100 µM (inactive)
same,GI50,NCI-H460,49.1 µM (inactive)
same,GI50,A549,44.3 µM (inactive)
same,GI50,M14,79.8 µM (inactive)
same,GI50,DMS-273,> 100 µM (inactive)
same,GI50,LOX IMVI,79.4 µM (inactive)
same,GI50,CCRF-CEM,44.2 µM (inactive)
same,GI50,M19-MEL,83.8 µM (inactive)
same,GI50,NCI-H23,> 100 µM (inactive)
same,GI50,IGROV-1,> 100 µM (inactive)
same,GI50,KM12,37.1 µM (inactive)
same,GI50,UO-31,34.6 µM (inactive)
same,GI50,SK-MEL-28,> 100 µM (inactive)
same,GI50,SW-620,> 100 µM (inactive)
same,GI50,HT-29,> 10 µM (inactive)
same,GI50,HCT-15,> 100 µM
same,GI50,SNB-78,> 100 µM (inactive)
CN(C)CCNC(=O)c1ccccc1Nc1c(Cl)cccc1Cl,GI50,OVCAR-8,14.1 µM (inactive)
same,GI50,SNB-19,16.1 µM (inactive)
same,GI50,NCI-H226,11.5 µM (inactive)
same,GI50,XF498,9.66 µM (inactive)
same,GI50,HCT-116,7.93 µM (inactive)
same,GI50,COLO 205,11.6 µM (inactive)
same,GI50,UACC-62,16.1 µM (inactive)
same,GI50,OVCAR-4,14.6 µM (inactive)
same,GI50,RPMI-8226,11.9 µM (inactive)
same,GI50,RXF 393,1.69 µM (inactive)
same,GI50,HCC 2998,10.6 µM (inactive)
same,GI50,786-0,4.62 µM (inactive)
same,GI50,MOLT-4,13.1 µM (inactive)
same,GI50,SF-268,16.2 µM (inactive)
same,GI50,K562,13.4 µM (inactive)
same,GI50,HL-60,11 µM (inactive)
same,GI50,KM-20L2,10.9 µM (inactive)
same,GI50,EKVX,8.2 µM (inactive)
same,GI50,LXFL 529,17.7 µM (inactive)
same,GI50,HOP-62,13.7 µM (inactive)
same,GI50,DLD-1,18.2 µM (inactive)
same,GI50,SK-OV-3,13.7 µM (inactive)
same,GI50,U-251,11.6 µM (inactive)
same,GI50,SK-MEL-5,2.89 µM (inactive)
same,GI50,TK-10,8.13 µM (inactive)
same,GI50,ACHN,8.75 µM (inactive)
same,GI50,SR,12.6 µM (inactive)
same,GI50,SN12C,15.1 µM (inactive)
same,GI50,OVCAR-5,10.4 µM (inactive)
same,GI50,A549,10.9 µM (inactive)
same,GI50,M14,15.4 µM (inactive)
same,GI50,DMS-273,16.9 µM (inactive)
same,GI50,LOX IMVI,12.8 µM (inactive)
same,GI50,CCRF-CEM,12.7 µM (inactive)
same,GI50,M19-MEL,11.1 µM (inactive)
same,GI50,NCI-H23,17.1 µM (inactive)
same,GI50,IGROV-1,18.2 µM (inactive)
same,GI50,SF-539,13.1 µM (inactive)
same,GI50,UO-31,4.52 µM (inactive)
same,GI50,SK-MEL-28,14.8 µM (inactive)
same,GI50,SW-620,14.1 µM (inactive)
same,GI50,HT-29,6.75 µM (inactive)
same,GI50,UACC-257,5.75 µM (inactive)
same,GI50,HCT-15,14.8 µM
same,GI50,SNB-75,2.07 µM (inactive)
same,GI50,SNB-78,16.4 µM (inactive)
CCOC(=O)Oc1ccc(C(CNC(C)C)OC(=O)OCC)cc1OC(=O)OCC (stereo unspecified),GI50,OVCAR-3,> 100 µM (inactive)
same,GI50,OVCAR-8,> 100 µM (inactive)
same,GI50,SNB-19,> 100 µM (inactive)
same,GI50,NCI-H226,> 100 µM (inactive)
same,GI50,NCI/ADR-RES,> 100 µM (inactive)
same,GI50,HCT-116,> 100 µM (inactive)
same,GI50,NCI-H522,49.9 µM (inactive)
same,GI50,COLO 205,> 100 µM (inactive)
same,GI50,SF-295,> 100 µM (inactive)
same,GI50,UACC-62,> 100 µM (inactive)
same,GI50,OVCAR-4,65.5 µM (inactive)
same,GI50,RPMI-8226,> 100 µM (inactive)
same,GI50,RXF 393,11.5 µM (inactive)
same,GI50,HCC 2998,> 100 µM (inactive)
same,GI50,786-0,> 100 µM (inactive)
same,GI50,MOLT-4,96.8 µM (inactive)
same,GI50,SF-268,> 100 µM (inactive)
same,GI50,MDA-MB-231,26.2 µM (inactive)
same,GI50,A498,> 100 µM (inactive)
same,GI50,Malme-3M,> 100 µM (inactive)
same,GI50,K562,> 100 µM (inactive)
same,GI50,MCF7,> 100 µM (inactive)
same,GI50,HL-60,25.4 µM (inactive)
same,GI50,SK-MEL-2,> 100 µM (inactive)
same,GI50,EKVX,> 100 µM (inactive)
same,GI50,HOP-62,> 100 µM (inactive)
same,GI50,SK-OV-3,> 100 µM (inactive)
same,GI50,U-251,> 100 µM (inactive)
same,GI50,SK-MEL-5,> 100 µM (inactive)
same,GI50,TK-10,> 100 µM (inactive)
same,GI50,ACHN,> 100 µM (inactive)
same,GI50,SR,> 100 µM (inactive)
same,GI50,SN12C,> 100 µM (inactive)
same,GI50,Hs-578T,> 100 µM (inactive)
same,GI50,OVCAR-5,> 100 µM (inactive)
same,GI50,NCI-H460,> 100 µM (inactive)
same,GI50,MDA-MB-435,> 100 µM (inactive)
same,GI50,T47D,> 100 µM (inactive)
same,GI50,BT-549,> 100 µM (inactive)
same,GI50,A549,> 100 µM (inactive)
same,GI50,M14,> 100 µM (inactive)
same,GI50,LOX IMVI,> 100 µM (inactive)
same,GI50,MDA-N,> 100 µM (inactive)
same,GI50,CCRF-CEM,48.1 µM (inactive)
same,GI50,PC-3,> 100 µM (inactive)
same,GI50,NCI-H23,> 100 µM (inactive)
same,GI50,IGROV-1,> 100 µM (inactive)
same,GI50,SF-539,> 100 µM (inactive)
same,GI50,KM12,> 100 µM (inactive)
same,GI50,UO-31,43.4 µM (inactive)
same,GI50,SK-MEL-28,> 100 µM (inactive)
same,GI50,SW-620,> 100 µM (inactive)
same,GI50,CAKI-1,> 100 µM (inactive)
same,GI50,HT-29,> 100 µM (inactive)
same,GI50,HOP-92,> 100 µM (inactive)
same,GI50,UACC-257,> 100 µM (inactive)
same,GI50,HCT-15,> 100 µM
same,GI50,DU-145,> 100 µM (inactive)
same,GI50,SNB-75,> 100 µM (inactive)
